From ChEMBL document CHEMBL3509421, “FDA drug approval package for diclofenac acid (NDA 22-202 CP, Ref ID: 3374276)”

Columns and labels:
[1] = Mean AUC (0-infinity) of diclofenac following single oral dosing of 25 mg diclofenac potassium softgel capsule in healthy human; assay type: ADME, organism-based; design: time infinity, dietary status Fed, dose 25 mg, dosed compound id 2.46815e+06, dosed compound name Diclofenac potassium, gender Mixed, regimen Single, route oral, study doses 25/50 mg; details: both, plasma, read-out: AUC (0-infinity)
[2] = Mean AUC (0-infinity) value of diclofenac following single oral dosing of 50 mg Cataflam tablet in healthy human; assay type: ADME, organism-based; design: time infinity, dietary status Fed, dose 50 mg, dosed compound id 2.46815e+06, dosed compound name Diclofenac potassium, gender Mixed, regimen Single, route oral; details: both, plasma, read-out: AUC (0-infinity)
[3] = (§1) Minimum tmax of diclofenac following single oral dosing of 50 mg Cataflam tablet in healthy human; assay type: ADME, organism-based, Plasma; design: dietary status Fed, dose 50 mg, dosed compound id 2.46815e+06, dosed compound name Diclofenac potassium, gender Mixed, regimen Single, route oral; details: in vivo
[4] = (§2) Maximum tmax of diclofenac following single oral dosing of 35 mg Zorvolex capsule in healthy human; assay type: ADME, organism-based, Plasma; design: dietary status Fed, dose 35 mg, dosed compound id 2.46815e+06, dosed compound name Diclofenac, gender Mixed, regimen Single, route oral; details: in vivo
clinical [5] = details: both, human, plasma, po, 25 mg
clinical [6] = details: both, human, plasma, po, 50 mg
[7] = Mean Cmax of diclofenac potassium following oral dosing of PRO-513 50 mg sachet in healthy human; assay type: ADME, organism-based; design: dietary status Fed, dose 50 mg, dosed compound id 2.46815e+06, dosed compound name Diclofenac potassium, gender Mixed, regimen Single, route oral, study doses 50 mg; details: both, plasma
[8] = Median tmax of diclofenac following single oral dosing of 18 mg Zorvolex capsule in healthy human; assay type: ADME, organism-based; design: dietary status Fasting, dose 18 mg, dosed compound id 2.46815e+06, dosed compound name Diclofenac, gender Mixed, regimen Single, route oral; details: both, plasma, read-out: Median Tmax
[9] = Mean apparent terminal elimination rate constant value of diclofenac following single oral dosing of 18 mg Zorvolex capsule in healthy human; assay type: ADME, organism-based, Plasma; design: dietary status Fasting, dose 18 mg, dosed compound id 2.46815e+06, dosed compound name Diclofenac, gender Mixed, regimen Single, route oral; details: in vivo
[10] = Median tmax of diclofenac following single oral dosing of 35 mg Zorvolex capsule in healthy human; assay type: ADME, organism-based; design: dietary status Fed, dose 35 mg, dosed compound id 2.46815e+06, dosed compound name Diclofenac, gender Mixed, regimen Single, route oral; details: both, plasma, read-out: Median Tmax
[11] = (§3) Geometric mean for apparent terminal elimination rate constant of diclofenac following single oral dosing of 35 mg Zorvolex capsule in healthy human; assay type: ADME, organism-based, Plasma; design: dietary status Fasting, dose 35 mg, dosed compound id 2.46815e+06, dosed compound name Diclofenac, gender Mixed, regimen Single, route oral; details: in vivo
[12] = Mean Cmax of diclofenac following single oral dosing of 50 mg diclofenac potassium soft gelatin capsule in healthy human; assay type: ADME, organism-based; design: dietary status Fasting, dose 50 mg, dosed compound id 2.46815e+06, dosed compound name Diclofenac potassium, gender Mixed, regimen Single, route oral, study doses 25/50 mg; details: both, plasma
clinical [13] = details: both, human, plasma, po, 25 mg; remark: listed apart in the source
Description: Mean terminal elimination half-life of diclofenac following single oral dosing of 25 mg diclofenac potassium softgel capsule in healthy human

clinical [14] = details: both, human, plasma, po, 50 mg; remark: listed apart in the source
[15] = as §3; assay type: ADME, organism-based, Plasma; design: dietary status Fed, dose 35 mg, dosed compound id 2.46815e+06, dosed compound name Diclofenac, gender Mixed, regimen Single, route oral; details: in vivo
[16] = Mean Cmax of diclofenac following single oral dosing of 25 mg diclofenac potassium softgel capsule in healthy human; assay type: ADME, organism-based; design: dietary status Fed, dose 25 mg, dosed compound id 2.46815e+06, dosed compound name Diclofenac potassium, gender Mixed, regimen Single, route oral, study doses 25/50 mg; details: both, plasma
[17] = Geometric mean for AUC (0-t) of diclofenac following single oral dosing of 35 mg Zorvolex capsule in healthy human; assay type: ADME, organism-based; design: dietary status Fed, dose 35 mg, dosed compound id 2.46815e+06, dosed compound name Diclofenac, gender Mixed, regimen Single, route oral; details: both, plasma
[18] = Mean maximum Tmax value of diclofenac potassium following oral dosing of Cataflam 50 mf tablet in healthy human; assay type: ADME, organism-based; design: dietary status Fed, dose 50 mg, dosed compound id 2.46815e+06, dosed compound name Diclofenac potassium, gender Mixed, regimen Single, route oral, study doses 50 mg; details: both, plasma, 50 mg, read-out: Maximum Tmax
[19] = Geometric mean for Cmax of diclofenac following single oral dosing of 50 mg Cataflam tablet in healthy human; assay type: ADME, organism-based; design: dietary status Fed, dose 50 mg, dosed compound id 2.46815e+06, dosed compound name Diclofenac potassium, gender Mixed, regimen Single, route oral; details: both, plasma
[20] = Mean AUC(0-t) of diclofenac following single oral dosing of 50 mg diclofenac potassium soft gelatin capsule in healthy human; assay type: ADME, organism-based; design: dietary status Fasting, dose 50 mg, dosed compound id 2.46815e+06, dosed compound name Diclofenac potassium, gender Mixed, regimen Single, route oral, study doses 25/50 mg; details: both, plasma
[21] = Mean Kel of diclofenac potassium following oral dosing of PRO-513 50 mg sachet in healthy human; assay type: ADME, organism-based; design: dietary status Fed, dose 50 mg, dosed compound id 2.46815e+06, dosed compound name Diclofenac potassium, gender Mixed, regimen Single, route oral, study doses 50 mg; details: both, plasma
[22] = Maximum tmax of diclofenac following single oral dosing of 50 mg Cataflam tablet in healthy human; assay type: ADME, organism-based, Plasma; design: dietary status Fasting, dose 50 mg, dosed compound id 2.46815e+06, dosed compound name Diclofenac potassium, gender Mixed, regimen Single, route oral; details: in vivo
[23] = (§4) Mean AUC(0-infinity) of diclofenac potassium following oral dosing of Cataflam 50 mf tablet in healthy human; assay type: ADME, organism-based; design: dietary status Fed, dose 50 mg, dosed compound id 2.46815e+06, dosed compound name Diclofenac potassium, gender Mixed, regimen Single, route oral, study doses 50 mg, time infinity; details: both, plasma, 50 mg, read-out: AUC(0-infinity)
[24] = Mean Tmax of diclofenac following single oral dosing of 25 mg diclofenac potassium softgel capsule in healthy human; assay type: ADME, organism-based; design: dietary status Fed, dose 25 mg, dosed compound id 2.46815e+06, dosed compound name Diclofenac potassium, gender Mixed, regimen Single, route oral, study doses 25/50 mg; details: both, plasma
[25] = Mean median Tmax value of diclofenac potassium following oral dosing of Cataflam 50 mf tablet in healthy human; assay type: ADME, organism-based; design: dietary status Fed, dose 50 mg, dosed compound id 2.46815e+06, dosed compound name Diclofenac potassium, gender Mixed, regimen Single, route oral, study doses 50 mg; details: both, plasma, 50 mg, read-out: Median Tmax
[26] = Minimum tmax of diclofenac following single oral dosing of 35 mg Zorvolex capsule in healthy human; assay type: ADME, organism-based, Plasma; design: dietary status Fed, dose 35 mg, dosed compound id 2.46815e+06, dosed compound name Diclofenac, gender Mixed, regimen Single, route oral; details: in vivo
[27] = as §1; assay type: ADME, organism-based, Plasma; design: dietary status Fasting, dose 50 mg, dosed compound id 2.46815e+06, dosed compound name Diclofenac potassium, gender Mixed, regimen Single, route oral; details: in vivo
[28] = as §2; assay type: ADME, organism-based, Plasma; design: dietary status Fasting, dose 35 mg, dosed compound id 2.46815e+06, dosed compound name Diclofenac, gender Mixed, regimen Single, route oral; details: in vivo
[29] = Mean AUC (0-infinity) value of diclofenac following single oral dosing of 35 mg Zorvolex capsule in healthy human; assay type: ADME, organism-based; design: time infinity, dietary status Fasting, dose 35 mg, dosed compound id 2.46815e+06, dosed compound name Diclofenac, gender Mixed, regimen Single, route oral; details: both, plasma, read-out: AUC (0-infinity)
[30] = Mean AUC(0-t) of diclofenac following single oral dosing of 50 mg Cataflam in healthy human; assay type: ADME, organism-based; design: dietary status Fasting, dose 50 mg, dosed compound id 2.46815e+06, dosed compound name Diclofenac potassium, gender Mixed, regimen Single, route oral, study doses 50 mg; details: both, plasma
[31] = Mean AUC (0-infinity) of diclofenac following single oral dosing of 50 mg diclofenac potassium softgel capsule in healthy human; assay type: ADME, organism-based; design: time infinity, dietary status Fasting, dose 50 mg, dosed compound id 2.46815e+06, dosed compound name Diclofenac potassium, gender Mixed, regimen Single, route oral, study doses 25/50 mg; details: both, plasma, read-out: AUC (0-infinity)
[32] = as §4; assay type: ADME, organism-based; design: time infinity, dietary status Fasting, dose 50 mg, dosed compound id 2.46815e+06, dosed compound name Diclofenac potassium, gender Mixed, regimen Single, route oral, study doses 50 mg; details: both, plasma, 50 mg, read-out: AUC(0-infinity)

## O=C(O)Cc1ccccc1Nc1c(Cl)cccc1Cl [DICLOFENAC]
[1]
  AUC(0-inf): 713 ng·h/mL
[2]
  AUC(0-inf): 1200 ng·h/mL
[3]
  Minimum Tmax: 30 min
[4]
  Maximum Tmax: 10 h
Clinical [5]
  half-life: 81 min
Clinical [6]
  half-life: 136 min
[7]
  Cmax: 506 ng/mL
[8]
  Tmax: 1 h
[9]
  lambda-z: 0.399 h⁻¹
[10]
  Tmax: 3.32 h
[11]
  lambda-z: 0.34 h⁻¹
[12]
  Cmax: 2040 ng/mL
Clinical [13]
  half-life: 62.4 min
Clinical [14]
  half-life: 81 min
[15]
  lambda-z: 0.333 h⁻¹
[16]
  Cmax: 686 ng/mL
[17]
  AUC(0-t): 837 ng·h/mL
[18]
  Tmax: 8 h
[19]
  Cmax: 621 ng/mL
[20]
  AUC(0-t): 1200 ng·h/mL
[21]
  k el: 0.000108 s⁻¹
[22]
  Maximum Tmax: 4.48 h
[23]
  AUC(0-inf): 1070 ng·h/mL
[24]
  Tmax: 1.02 h
[25]
  Tmax: 1.25 h
[26]
  Minimum Tmax: 30 min
[27]
  Minimum Tmax: 15 min
[28]
  Maximum Tmax: 4 h
[29]
  AUC(0-inf): 1000 ng·h/mL
[30]
  AUC(0-t): 1130 ng·h/mL
[31]
  AUC(0-inf): 1550 ng·h/mL
[32]
  AUC(0-inf): 1100 ng·h/mL
